Laboratory results taken from PubChem BioAssay (NCI).
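Dose response: 5 concentrations. Exposure: 48 h. Format: 96-well plates. Endpoint: linear interpolation; highest concentration if not reached. TGI marks complete inhibition of growth.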

Key:
Experiment in all cases: growth of human tumour cells (NCI), 48 h
[1] = tested on: CAKI-1 renal
[2] = tested on: RXF 393 renal
[3] = tested on: NCI-H23 lung
[4] = tested on: TK-10 renal
[5] = tested on: SNB-19 CNS
[6] = tested on: MDA-MB-435
[7] = tested on: MCF7 breast
[8] = tested on: T-47D breast
[9] = tested on: SF-268 CNS
[10] = tested on: SK-OV-3 ovarian
[11] = tested on: MALME-3M melanoma
[12] = tested on: MDA-MB-231 breast

CCOC(=O)C(Cc1ccc(O)cc1)Nc1nc(=O)c2c(=O)oc(Cl)cc2o1 (configuration not stated)
TGI [1]: 16.6 µM
TGI [2]: 16 µM
TGI [3]: 40.5 µM
TGI [4]: 20.6 µM
TGI [5]: 27.3 µM
TGI [6]: 20.4 µM
TGI [7]: 17.6 µM
TGI [8]: 25.7 µM
TGI [9]: 17.3 µM
TGI [10]: 27.7 µM
TGI [11]: 16.5 µM
TGI [12]: 23.1 µM
